Measurements as given in article PMC5392334, “Discovery and characterization of a novel irreversible EGFR mutants selective and potent kinase inhibitor CHMFL-EGFR-26 with a distinct binding mode” (Oncotarget, 2017).

Tests used:
[1] = biological target: T1, MRCKB (Homo sapiens, UniProt Q9Y5S2); assay: KinomeScan; format: binding; details: read-out: % control
T1 construct: purchased DiscoveRx KINOMEscan

[2] = biological target: T2, VPS34 (Homo sapiens, UniProt Q8NEB9); assay: KinomeScan; format: binding; details: read-out: % control
T2 construct: purchased DiscoveRx KINOMEscan

[3] = tested on: p70S6K and eIF4E phosphorylations in H3255 cells; assay: Signaling pathway examination (immunoblotting); format: cell-based, human; details: 30 nM, 4 hours
From the text: (§1) We next examined the effects of CHMFL-EGFR-26 on EGFR mediated signaling pathways in NSCLC cell lines with different EGFR mutants. […] As expected, in the EGFR wt expressing NCSCL cell lines A549 and H1355, only autophosphorylation of EGFR was affected and none of the downstream mediators was inhibited.
(§2) Cells were then collected and lysed. Phospho-EGF Receptor, Phospho-EGF Receptor (Tyr1068), Stat3, Phospho-Stat3 (Tyr705), AKT, Phospho-AKT (Ser473), Phospho-AKT (Thr308), p44/42 MAPK (Erk1/2), Phospho-p44/42 MAPK (Erk1/2) (Thr202/ Tyr204), p70 S6 Kinase, Phospho-p70 S6 Kinase (Thr389), eIF4E, Phospho-eIF4E (Ser209), 4E-BP1, Phospho-4E-BP1 (Thr37/46) antibody (Cell Signaling Technology) were used for immunoblotting.

[4] = tested on: autophosphorylation of EGFR Y1068 in H1975 cell line; assay: Signaling pathway examination (immunoblotting); format: cell-based, human; details: 10 nM, 4 hours
From the text: as §1, §2

[5] = biological target: T3, HCK (Homo sapiens, UniProt P08631); assay: KinomeScan; format: binding; details: read-out: % control
T3 construct: purchased DiscoveRx KINOMEscan

[6] = biological target: T4, MEK6 (Homo sapiens, UniProt P52564); assay: KinomeScan; format: binding; details: read-out: % control
T4 construct: purchased DiscoveRx KINOMEscan

[7] = biological target: T5, CAMK1D (Homo sapiens, UniProt Q8IU85); assay: KinomeScan; format: binding; details: read-out: % control
T5 construct: purchased DiscoveRx KINOMEscan

[8] = biological target: T6, NIK (Homo sapiens, UniProt Q99558); assay: KinomeScan; format: binding; details: read-out: % control
T6 construct: purchased DiscoveRx KINOMEscan

[9] = biological target: T7, MEK4 (Homo sapiens, UniProt P45985); assay: KinomeScan; format: binding; details: read-out: % control
T7 construct: purchased DiscoveRx KINOMEscan

[10] = biological target: T8, ASK1 (Homo sapiens, UniProt Q99683); assay: KinomeScan; format: binding; details: read-out: % control
T8 construct: purchased DiscoveRx KINOMEscan

[11] = biological target: T9, CDK7 (Homo sapiens, UniProt P50613); assay: KinomeScan; format: binding; details: read-out: % control
T9 construct: purchased DiscoveRx KINOMEscan
T9 sequence (P50613 whole entry): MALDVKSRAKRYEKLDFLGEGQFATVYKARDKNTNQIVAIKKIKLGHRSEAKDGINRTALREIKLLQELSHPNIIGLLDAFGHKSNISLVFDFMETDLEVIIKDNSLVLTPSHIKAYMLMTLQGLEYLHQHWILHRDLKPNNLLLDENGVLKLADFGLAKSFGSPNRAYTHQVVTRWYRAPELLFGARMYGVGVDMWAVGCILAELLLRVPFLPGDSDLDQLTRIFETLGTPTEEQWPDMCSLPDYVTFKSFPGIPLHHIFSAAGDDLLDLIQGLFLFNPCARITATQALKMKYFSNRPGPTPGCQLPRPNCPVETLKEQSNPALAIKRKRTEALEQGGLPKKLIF

[12] = biological target: T10, BMPR2 (Homo sapiens, UniProt Q13873); assay: KinomeScan; format: binding; details: read-out: % control
T10 construct: purchased DiscoveRx KINOMEscan
T10 sequence (Q13873 27-1038): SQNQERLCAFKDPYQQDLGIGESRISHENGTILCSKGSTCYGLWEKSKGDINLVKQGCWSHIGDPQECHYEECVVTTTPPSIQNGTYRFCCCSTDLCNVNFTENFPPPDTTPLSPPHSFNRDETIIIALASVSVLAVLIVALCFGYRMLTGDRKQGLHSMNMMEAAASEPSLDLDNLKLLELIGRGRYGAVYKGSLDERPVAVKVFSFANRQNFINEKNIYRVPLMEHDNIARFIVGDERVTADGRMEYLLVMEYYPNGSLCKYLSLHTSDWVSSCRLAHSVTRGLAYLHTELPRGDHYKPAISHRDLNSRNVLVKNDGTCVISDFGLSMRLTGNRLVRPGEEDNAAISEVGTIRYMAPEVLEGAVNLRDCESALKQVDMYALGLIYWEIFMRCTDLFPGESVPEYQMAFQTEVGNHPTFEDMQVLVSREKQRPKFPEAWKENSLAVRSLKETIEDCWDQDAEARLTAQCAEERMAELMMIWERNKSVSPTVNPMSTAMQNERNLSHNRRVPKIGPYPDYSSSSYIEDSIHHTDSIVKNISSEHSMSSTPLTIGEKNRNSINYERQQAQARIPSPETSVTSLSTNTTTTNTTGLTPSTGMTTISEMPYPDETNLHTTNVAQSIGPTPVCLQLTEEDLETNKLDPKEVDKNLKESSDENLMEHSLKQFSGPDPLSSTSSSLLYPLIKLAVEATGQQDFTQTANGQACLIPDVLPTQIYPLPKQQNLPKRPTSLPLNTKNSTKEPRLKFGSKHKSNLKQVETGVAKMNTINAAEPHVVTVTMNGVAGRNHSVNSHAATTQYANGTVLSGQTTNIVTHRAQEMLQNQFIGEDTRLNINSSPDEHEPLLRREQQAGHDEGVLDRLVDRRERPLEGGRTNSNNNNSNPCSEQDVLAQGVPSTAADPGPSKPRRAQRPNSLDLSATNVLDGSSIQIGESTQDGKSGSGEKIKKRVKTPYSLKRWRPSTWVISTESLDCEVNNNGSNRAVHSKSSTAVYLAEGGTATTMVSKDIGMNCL

[13] = biological target: T11, ABL1(H396P)-phosphorylated (Homo sapiens, UniProt P00519, H396P); assay: KinomeScan; format: binding; details: read-out: % control
T11 construct: purchased DiscoveRx KINOMEscan

[14] = biological target: T12, MST4 (Homo sapiens, UniProt Q9P289); assay: KinomeScan; format: binding; details: read-out: % control
T12 construct: purchased DiscoveRx KINOMEscan

[15] = biological target: T13, DYRK1A (Homo sapiens, UniProt Q13627); assay: KinomeScan; format: binding; details: read-out: % control
T13 construct: purchased DiscoveRx KINOMEscan

[16] = biological target: T14, JNK1 (Homo sapiens, UniProt P45983); assay: KinomeScan; format: binding; details: read-out: % control
T14 construct: purchased DiscoveRx KINOMEscan

[17] = biological target: T15, GAK (Homo sapiens, UniProt O14976); assay: KinomeScan; format: binding; details: read-out: % control
T15 construct: purchased DiscoveRx KINOMEscan

[18] = biological target: T16, S6K1 (Homo sapiens, UniProt P23443); assay: KinomeScan; format: binding; details: read-out: % control
T16 construct: purchased DiscoveRx KINOMEscan

[19] = biological target: T17, MET(M1250T) (Homo sapiens, UniProt P08581, M1250T); assay: KinomeScan; format: binding; details: read-out: % control
T17 construct: purchased DiscoveRx KINOMEscan
T17 sequence (P08581 25-1390 M1250T): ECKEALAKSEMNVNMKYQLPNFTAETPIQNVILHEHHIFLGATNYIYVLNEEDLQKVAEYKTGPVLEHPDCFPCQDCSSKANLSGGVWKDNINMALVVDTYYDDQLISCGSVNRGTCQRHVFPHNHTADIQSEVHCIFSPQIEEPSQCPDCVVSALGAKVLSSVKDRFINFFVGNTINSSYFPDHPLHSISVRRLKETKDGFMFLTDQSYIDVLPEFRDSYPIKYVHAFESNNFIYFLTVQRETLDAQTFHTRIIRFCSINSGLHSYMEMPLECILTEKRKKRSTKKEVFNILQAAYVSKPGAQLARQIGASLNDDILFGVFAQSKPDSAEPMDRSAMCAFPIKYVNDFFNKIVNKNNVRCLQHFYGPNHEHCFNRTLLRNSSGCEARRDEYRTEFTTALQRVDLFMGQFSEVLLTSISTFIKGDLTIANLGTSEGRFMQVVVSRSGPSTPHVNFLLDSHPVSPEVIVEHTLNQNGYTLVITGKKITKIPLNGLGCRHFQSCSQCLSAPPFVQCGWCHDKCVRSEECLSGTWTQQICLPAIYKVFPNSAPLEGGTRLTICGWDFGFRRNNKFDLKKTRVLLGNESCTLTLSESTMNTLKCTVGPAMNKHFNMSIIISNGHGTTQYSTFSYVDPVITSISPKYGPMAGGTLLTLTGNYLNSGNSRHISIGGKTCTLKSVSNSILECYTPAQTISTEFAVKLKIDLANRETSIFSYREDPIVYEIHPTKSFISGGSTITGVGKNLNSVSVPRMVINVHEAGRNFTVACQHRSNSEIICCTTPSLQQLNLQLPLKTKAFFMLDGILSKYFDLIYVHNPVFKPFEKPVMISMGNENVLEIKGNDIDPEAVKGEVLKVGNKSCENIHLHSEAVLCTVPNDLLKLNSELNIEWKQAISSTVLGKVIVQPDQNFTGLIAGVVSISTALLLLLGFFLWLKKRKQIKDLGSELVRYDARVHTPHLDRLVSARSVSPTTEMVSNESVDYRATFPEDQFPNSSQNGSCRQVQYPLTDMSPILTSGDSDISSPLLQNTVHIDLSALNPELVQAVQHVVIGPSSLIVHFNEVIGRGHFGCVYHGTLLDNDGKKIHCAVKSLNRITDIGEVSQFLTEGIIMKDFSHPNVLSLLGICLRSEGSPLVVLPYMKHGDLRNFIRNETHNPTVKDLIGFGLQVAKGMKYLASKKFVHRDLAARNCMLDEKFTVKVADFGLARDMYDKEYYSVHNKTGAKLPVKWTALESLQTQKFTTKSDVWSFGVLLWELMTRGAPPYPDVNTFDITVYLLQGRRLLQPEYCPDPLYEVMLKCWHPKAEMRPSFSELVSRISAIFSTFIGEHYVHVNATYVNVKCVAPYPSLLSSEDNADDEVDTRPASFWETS

[20] = biological target: T18, BTK (Homo sapiens, UniProt Q06187); assay: KinomeScan; format: binding; details: read-out: % control
T18 construct: purchased Invitrogen (SelectScreen service)

[21] = biological target: T19, CAMK2A (Homo sapiens, UniProt Q9UQM7); assay: KinomeScan; format: binding; details: read-out: % control
T19 construct: purchased DiscoveRx KINOMEscan

[22] = biological target: T20, TRKA (Homo sapiens, UniProt P04629); assay: KinomeScan; format: binding; details: read-out: % control
T20 construct: purchased DiscoveRx KINOMEscan
T20 sequence (P04629 33-796): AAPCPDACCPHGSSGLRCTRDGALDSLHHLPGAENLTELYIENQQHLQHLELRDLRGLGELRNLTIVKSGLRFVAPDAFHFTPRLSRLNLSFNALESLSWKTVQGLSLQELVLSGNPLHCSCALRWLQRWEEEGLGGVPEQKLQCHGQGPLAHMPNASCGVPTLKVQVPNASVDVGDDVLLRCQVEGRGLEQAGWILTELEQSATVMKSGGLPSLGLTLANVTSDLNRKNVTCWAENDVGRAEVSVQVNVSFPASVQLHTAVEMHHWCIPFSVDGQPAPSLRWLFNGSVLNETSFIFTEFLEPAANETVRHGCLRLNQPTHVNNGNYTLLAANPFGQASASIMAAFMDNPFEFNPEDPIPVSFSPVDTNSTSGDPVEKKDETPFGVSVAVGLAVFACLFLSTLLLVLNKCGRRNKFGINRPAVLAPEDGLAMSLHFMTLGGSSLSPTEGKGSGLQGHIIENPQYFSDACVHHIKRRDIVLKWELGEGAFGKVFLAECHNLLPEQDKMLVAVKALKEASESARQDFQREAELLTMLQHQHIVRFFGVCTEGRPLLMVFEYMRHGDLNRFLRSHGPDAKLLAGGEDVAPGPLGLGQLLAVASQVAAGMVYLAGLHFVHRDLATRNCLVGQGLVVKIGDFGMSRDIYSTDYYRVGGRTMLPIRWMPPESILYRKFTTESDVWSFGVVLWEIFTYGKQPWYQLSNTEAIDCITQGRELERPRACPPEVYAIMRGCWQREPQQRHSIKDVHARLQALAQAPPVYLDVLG

[23] = biological target: T21, DCAMKL2 (Homo sapiens, UniProt Q8N568); assay: KinomeScan; format: binding; details: read-out: % control
T21 construct: purchased DiscoveRx KINOMEscan

[24] = biological target: T22, HIPK3 (Homo sapiens, UniProt Q9H422); assay: KinomeScan; format: binding; details: read-out: % control
T22 construct: purchased DiscoveRx KINOMEscan

[25] = biological target: T23, EPHA7 (Homo sapiens, UniProt Q15375); assay: KinomeScan; format: binding; details: read-out: % control
T23 construct: purchased DiscoveRx KINOMEscan
T23 sequence (Q15375 28-998): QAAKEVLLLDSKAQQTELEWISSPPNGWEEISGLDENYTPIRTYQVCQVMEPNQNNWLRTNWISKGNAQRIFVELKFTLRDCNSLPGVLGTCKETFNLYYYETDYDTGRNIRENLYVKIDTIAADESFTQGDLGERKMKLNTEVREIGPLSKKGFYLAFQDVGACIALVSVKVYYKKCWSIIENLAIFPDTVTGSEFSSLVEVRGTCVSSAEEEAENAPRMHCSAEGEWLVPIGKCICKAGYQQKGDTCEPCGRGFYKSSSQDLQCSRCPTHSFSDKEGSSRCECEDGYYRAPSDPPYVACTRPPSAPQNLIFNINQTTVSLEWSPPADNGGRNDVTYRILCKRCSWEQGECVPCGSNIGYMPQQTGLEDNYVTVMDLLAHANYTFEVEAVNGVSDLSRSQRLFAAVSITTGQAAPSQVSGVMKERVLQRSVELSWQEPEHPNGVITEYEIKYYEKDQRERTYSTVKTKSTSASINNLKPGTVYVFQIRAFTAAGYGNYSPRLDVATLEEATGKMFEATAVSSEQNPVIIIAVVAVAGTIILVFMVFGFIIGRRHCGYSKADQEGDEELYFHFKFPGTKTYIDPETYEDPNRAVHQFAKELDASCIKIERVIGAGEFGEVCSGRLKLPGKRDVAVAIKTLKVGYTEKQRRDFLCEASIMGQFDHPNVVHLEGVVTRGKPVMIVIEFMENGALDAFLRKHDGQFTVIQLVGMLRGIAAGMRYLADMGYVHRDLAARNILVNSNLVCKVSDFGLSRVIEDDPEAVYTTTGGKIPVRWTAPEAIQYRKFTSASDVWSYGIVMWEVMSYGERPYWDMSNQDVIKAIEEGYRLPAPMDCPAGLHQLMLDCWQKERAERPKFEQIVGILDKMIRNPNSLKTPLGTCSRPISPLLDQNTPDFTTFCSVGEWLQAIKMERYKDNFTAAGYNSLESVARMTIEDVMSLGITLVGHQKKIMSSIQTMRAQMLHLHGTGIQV

[26] = biological target: T24, RPS6KA5(Kin.Dom.1-N-terminal) (Homo sapiens, UniProt O75582); assay: KinomeScan; format: binding; details: read-out: % control
T24 construct: RPS6KA5(Kin.Dom.1-N-terminal); purchased DiscoveRx KINOMEscan

[27] = biological target: T25, MKNK2 (Homo sapiens, UniProt Q9HBH9); assay: KinomeScan; format: binding; details: read-out: % control
T25 construct: purchased DiscoveRx KINOMEscan

[28] = biological target: T26, CDK9 (Homo sapiens, UniProt P50750); assay: KinomeScan; format: binding; details: read-out: % control
T26 construct: purchased DiscoveRx KINOMEscan

[29] = biological target: T27, AKT1 (Homo sapiens, UniProt P31749); assay: KinomeScan; format: binding; details: read-out: % control
T27 construct: purchased DiscoveRx KINOMEscan
T27 sequence (P31749 whole entry): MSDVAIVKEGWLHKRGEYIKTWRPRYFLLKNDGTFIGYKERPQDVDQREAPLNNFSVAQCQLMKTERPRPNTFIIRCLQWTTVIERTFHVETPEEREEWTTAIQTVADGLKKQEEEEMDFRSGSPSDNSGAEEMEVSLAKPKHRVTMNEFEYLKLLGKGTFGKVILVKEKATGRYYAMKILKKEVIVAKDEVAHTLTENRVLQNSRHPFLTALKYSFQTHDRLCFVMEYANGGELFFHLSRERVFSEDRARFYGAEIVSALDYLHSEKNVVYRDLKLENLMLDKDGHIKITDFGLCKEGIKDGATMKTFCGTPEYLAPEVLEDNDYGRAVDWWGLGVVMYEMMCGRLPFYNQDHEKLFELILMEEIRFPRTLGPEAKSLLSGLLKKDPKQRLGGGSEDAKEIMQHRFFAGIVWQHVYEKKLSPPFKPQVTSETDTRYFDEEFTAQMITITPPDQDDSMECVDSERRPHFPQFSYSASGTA

[30] = biological target: T28, p38-gamma (Homo sapiens, UniProt P53778); assay: KinomeScan; format: binding; details: read-out: % control
T28 construct: purchased DiscoveRx KINOMEscan

[31] = biological target: T29, EPHB3 (Homo sapiens, UniProt P54753); assay: KinomeScan; format: binding; details: read-out: % control
T29 construct: purchased DiscoveRx KINOMEscan

[32] = biological target: T30, TTK (Homo sapiens, UniProt P33981); assay: KinomeScan; format: binding; details: read-out: % control
T30 construct: purchased DiscoveRx KINOMEscan

[33] = biological target: T31, CASK (Homo sapiens, UniProt O14936); assay: KinomeScan; format: binding; details: read-out: % control
T31 construct: purchased DiscoveRx KINOMEscan

[34] = biological target: T32, FLT3-autoinhibited (Homo sapiens, UniProt P36888); assay: KinomeScan; format: binding; details: read-out: % control
T32 construct: purchased DiscoveRx KINOMEscan

[35] = biological target: T33, CLK3 (Homo sapiens, UniProt P49761); assay: KinomeScan; format: binding; details: read-out: % control
T33 construct: purchased DiscoveRx KINOMEscan

[36] = biological target: T34, MAPKAPK5 (Homo sapiens, UniProt Q8IW41); assay: KinomeScan; format: binding; details: read-out: % control
T34 construct: purchased DiscoveRx KINOMEscan

[37] = biological target: T35, AMPK-alpha2 (Homo sapiens, UniProt P54646); assay: KinomeScan; format: binding; details: read-out: % control
T35 construct: purchased DiscoveRx KINOMEscan

[38] = biological target: T36, ERK1 (Homo sapiens, UniProt P27361); assay: KinomeScan; format: binding; details: read-out: % control
T36 construct: purchased DiscoveRx KINOMEscan

SMILES: C=CC(=O)N1CCC[C@@H](n2nc(-c3ccc(OCc4cccc(C)n4)c(Cl)c3)c3c(N)ncnc32)C1 [CHMFL-EGFR-26]
- remaining binding at 1 µM [1]: 80%
- remaining binding at 1 µM [2]: 89%
- mTOR-p70S6K and eIF4E phosphorylations [3]: completely blocked
- autophosphorylation of EGFR Y1068 [4]: almost completely suppress
- remaining binding at 1 µM [5]: 44%
- remaining binding at 1 µM [6]: 95%
- remaining binding at 1 µM [7]: 91%
- remaining binding at 1 µM [8]: 100%
- remaining binding at 1 µM [9]: 80%
- remaining binding at 1 µM [10]: 97%
- remaining binding at 1 µM [11]: 100%
- remaining binding at 1 µM [12]: 100%
- remaining binding at 1 µM [13]: 100%
- remaining binding at 1 µM [14]: 99%
- remaining binding at 1 µM [15]: 100%
- remaining binding at 1 µM [16]: 76%
- remaining binding at 1 µM [17]: 72%
- remaining binding at 1 µM [18]: 100%
- remaining binding at 1 µM [19]: 90%
- remaining binding at 1 µM [20]: 0.45%
- remaining binding at 1 µM [21]: 99%
- remaining binding at 1 µM [22]: 55%
- remaining binding at 1 µM [23]: 95%
- remaining binding at 1 µM [24]: 100%
- remaining binding at 1 µM [25]: 100%
- remaining binding at 1 µM [26]: 100%
- remaining binding at 1 µM [27]: 91%
- remaining binding at 1 µM [28]: 90%
- remaining binding at 1 µM [29]: 98%
- remaining binding at 1 µM [30]: 100%
- remaining binding at 1 µM [31]: 100%
- remaining binding at 1 µM [32]: 95%
- remaining binding at 1 µM [33]: 95%
- remaining binding at 1 µM [34]: 99%
- remaining binding at 1 µM [35]: 100%
- remaining binding at 1 µM [36]: 100%
- remaining binding at 1 µM [37]: 90%
- remaining binding at 1 µM [38]: 91%
